Measured values as given in patent publication EP0176033A2, “Isoxazolecarboxylic-acid derivatives, their preparation and use” (BASF Aktiengesellschaft, priority 1984, dated 1986).

System: Rhino-Maus
Assay: Rhino mouse model: reduction of utriculus diameter after topical application (comedolytic activity)
Assay type: in vivo
Conditions: 100 µl on the back, once daily, 5 days per week, 2 weeks, versus untreated control group
Text: Die antiarthritische Wirkung der erfindungsgemäßen Verbindungen kann in üblicher Weise im Tierexperiment im Adjuvans-Arthritis-Modell bestimmt werden. Die dermatologische Aktivität, beispielsweise für die Behandlung von Akne, kann u. a. durch die komedolytische Aktivität und die Fähigkeit nachgewiesen werden, die Anzahl der Zysten im Modell der Rhino--Maus zu reduzieren.
Diese Methode ist von L. H. Kligman et al in The Journal of Investigative Dermatology 73, 354 - 358 (1979) und von J.A. Mezick et al. in "Models of Dermatalogy" (Ed. Maibach, Läwe), Vol. 2, S. 59-63, Karger, Basel 1985) beschrieben.
Die Testsubstanz wurde in einem geeigneten Vehikel auf der gesamten Rückenpartie der Rhino-Maus topisch aufgetragen (100 µl), einmal täglich, an fünf aufeinanderfolgenden Tagen pro Woche, zwei Wochen lang ungefähr 72 h nach der letzten Behandlung wurde die dorsale Haut entfernt und in 0,5 Xiger Essigsäure 18 h bei 4-6°C belassen. Danach wurde eine ca. 2 x 5 cm^2 große Fläche herausgeschnitten, die Epidermis abgeschält, auf einen Objektträger aufgebracht (mit der dermalen Seite nach oben) und mittels Alkohol/Xylol wasserfrei gespült, bis die Epidermis durchsichtig erscheint. Die Probe wurde durch Uberziehen mit Permount fixiert und mikroskopisch ausgewertet. […]

C/C(=C\c1cc(C(=O)O)no1)c1ccc2c(c1)C(C)(C)CCC2(C)C [Beispiel 17a, (E)-5-[2-(5,5,8,8-Tetramethyl-5,6,7,8-tetrahydro-naphth--2-yl)-1-propenyl]isoxazol-3-carbonsäure]
Reduktion des Utriculusdurchmessers in % (Dosis 0,2 mg/ml): 45,1%
Reduktion des Utriculusdurchmessers in % (Dosis 2 mg/ml): 75,6%
